# Target: T1, human FAAH (Homo sapiens, UniProt O00519)
# T1 construct: expressed in transfected cells; host or cells: H4 cells (H4-FAAH, Geneticin-selected); crude membrane homogenates
# T1 sequence (O00519 1-579): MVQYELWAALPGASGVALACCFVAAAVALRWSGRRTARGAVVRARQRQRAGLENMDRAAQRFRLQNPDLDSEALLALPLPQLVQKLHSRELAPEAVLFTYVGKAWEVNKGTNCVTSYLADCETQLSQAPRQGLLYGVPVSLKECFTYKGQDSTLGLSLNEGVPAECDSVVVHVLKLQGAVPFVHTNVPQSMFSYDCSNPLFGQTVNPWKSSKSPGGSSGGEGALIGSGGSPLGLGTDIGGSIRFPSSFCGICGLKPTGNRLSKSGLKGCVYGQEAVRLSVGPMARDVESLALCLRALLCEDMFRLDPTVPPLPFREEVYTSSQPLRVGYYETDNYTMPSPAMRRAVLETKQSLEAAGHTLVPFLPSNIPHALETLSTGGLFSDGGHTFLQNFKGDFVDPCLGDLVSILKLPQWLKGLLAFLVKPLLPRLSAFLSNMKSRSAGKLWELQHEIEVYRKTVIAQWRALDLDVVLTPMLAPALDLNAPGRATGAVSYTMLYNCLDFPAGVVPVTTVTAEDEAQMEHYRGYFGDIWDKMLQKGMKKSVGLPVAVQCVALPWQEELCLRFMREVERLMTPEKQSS
# Assay: FAAH activity in membrane homogenates of H4-FAAH cells, [3H]-anandamide hydrolysis
# Assay type: biochemical
# Conditions: not given
# Description: Homogenates of crude membranes were prepared from H4 cells that express transfected human FAAH (H4-FAAH cells). Briefly, cells were grown in DMEM supplemented with 10% FBS and Geneticin at a final concentration of 500 μg/ml (Gibco BRL, Rockville, Md.). Confluent cultures of H4-FAAH cells were rinsed twice with phosphate-buffered saline [138 mM NaCl, 4.1 mM KCl, 5.1 mM Na2PO4, 1.5 mM KH2PO4 (pH 7.5), 37° C.] and incubated for 5 to 10 minutes at 4° C. in lysis buffer [1 mM sodium bicarbonate]. Cells were transferred from plates to polypropylene tubes (16×100 mm), homogenized and centrifuged at 32,000×g for 30 minutes. Pellets were resuspended by homogenization in lysis buffer and centrifuged at 32,000×g for 30 minutes. Pellets were resuspended in lysis buffer (15-20 μg protein/ml) then stored at −80° C. until needed. On the day of an experiment, membranes were diluted to 2.67 μg protein/ml in 125 mM Tris-Cl, pH 9.0.
# Activity of FAAH was measured using a modification of the method described by Omeir et al., 1995 (Life Sci 56:1999, 1995). Membrane homogenates (240 ng protein) were incubated at room temperature for one hour with 1.67 nM anandamide [ethanolamine 1-^3H] (available from American Radiolabeled Chemical Inc., St Louis, Mo.) and 10 μM anandamide (available from Sigma/RBI, St. Louis, Mo.) in the absence and presence of inhibitors. The reaction was stopped by the addition of 1 volume of a solution of 1:1 methanol and dichloroethane. The mixture was shaken and then centrifuged at 1000×g for 15 minutes to separate the aqueous and organic phases. An aliquot of the aqueous phase, containing [^3H]-ethanolamine was withdrawn and counted by scintillation spectroscopy. Data were expressed as the percentage of [^3H]-ethanolamine formed versus vehicle, after subtraction of the background radioactivity determined in the presence of 10 μM arachidonyl trifluoromethyl ketone (ATFMK), an inhibitor of FAAH. IC50 values were determined using a four-parameter logistic equation for dose-response curves.
row,Structure (SMILES),IC50
1,"CCCCCCCCCOc1ccc(NC(=O)O/N=C/c2cccnc2)cc1 [Example 4, 3-Pyridinecarboxaldehyde, O-[[[4-(nonyloxy)phenyl]amino]carbonyl]oxime]",< 10 nM
2,"CCCCCOc1ccc(NC(=O)O/N=C/c2ccccc2)cc1 [Example 11, Benzaldehyde, O-[[(4-pentyloxyphenyl)amino]carbonyl]oxime]",< 10 nM
3,"CCCCCOc1ccc(NC(=O)O/N=C/c2ccc(F)cc2)cc1 [Example 14, 4-Fluorobenzaldehyde, O-[[(4-pentyloxyphenyl)amino]carbonyl]oxime]",< 10 nM

# Same assay, conditions: H4-FAAH cell membranes, 10 μM anandamide, room temperature, one hour; read-out: IC50
row,Structure (SMILES),IC50
1,"CCCCCCCOc1ccc(NC(=O)O/N=C/c2cccnc2)cc1 [Example 1, 3-Pyridinecarboxaldehyde, O-[[[4-(Heptyloxy)phenyl]amino]carbonyl]oxime]",< 10 nM
2,"CCCCOc1ccc(CNC(=O)Oc2cccnc2)cc1 [Example 2, (4-Butoxyphenyl)methylcarbamic acid, 3-pyridinyl ester]",< 10 nM
3,"CCCCCCCCCCCOc1ccc(NC(=O)O/N=C/c2cccnc2)cc1 [Example 3, 3-Pyridinecarboxaldehyde, O-[[[4-(undecyloxy)phenyl]amino]carbonyl]oxime]",< 10 nM
4,"CCOc1ccc(NC(=O)ON=C(C)C)cc1 [Example 6, 2-Propanone, O-[[(4-ethoxyphenyl)amino]carbonyl]oxime]",101 to 500 nM
5,"CCCOc1ccc(NC(=O)ON=C(C)C)cc1 [Example 7, 2-Propanone, O-[[(4-propoxyphenyl)amino]carbonyl]oxime]",101 to 500 nM
6,"CCCCCOc1ccc(NC(=O)ON=C(C)C)cc1 [Example 8, 2-Propanone, O-[[(4-pentyloxyphenyl)amino]carbonyl]oxime]",10 to 100 nM
7,"CCOc1ccc(NC(=O)O/N=C/c2ccccc2)cc1 [Example 9, Benzaldehyde, O-[[(4-ethoxyphenyl)amino]carbonyl]oxime]",10 to 100 nM
8,"CCCOc1ccc(NC(=O)O/N=C/c2ccccc2)cc1 [Example 10, Benzaldehyde, O-[[(4-propoxyphenyl)amino]carbonyl]oxime]",< 10 nM
9,"CCOc1ccc(NC(=O)O/N=C/c2ccc(F)cc2)cc1 [Example 12, 4-Fluorobenzaldehyde, O-[[(4-ethoxyphenyl)amino]carbonyl]oxime]",10 to 100 nM
10,"CCCOc1ccc(NC(=O)O/N=C/c2ccc(F)cc2)cc1 [Example 13, 4-Fluorobenzaldehyde, O-[[(4-propoxyphenyl)amino]carbonyl]oxime]",10 to 100 nM
11,"CCOc1ccc(NC(=O)O/N=C/c2cccnc2)cc1 [Example 15, 3-Pyridinecarboxaldehyde, O-[[(4-ethoxyphenyl)amino]carbonyl]oxime]",101 to 500 nM
12,"CCCOc1ccc(NC(=O)O/N=C/c2cccnc2)cc1 [Example 16, 3-Pyridinecarboxaldehyde, O-[[(4-propoxyphenyl)amino]carbonyl]oxime]",10 to 100 nM
13,"CCCCCOc1ccc(NC(=O)O/N=C/c2cccnc2)cc1 [Example 17, 3-Pyridinecarboxaldehyde, O-[[(4-pentyloxyphenyl)amino]carbonyl]oxime]",< 10 nM
14,"CCCCOc1ccc(NC(=O)ON=C(C)C)cc1OC [Example 18, 2-Propanone, O-[[(4-butoxy-3-methoxyphenyl)amino]carbonyl]oxime]",> 500 nM
15,"CCCCOc1ccc(NC(=O)O/N=C/c2ccccc2)cc1OC [Example 19, Benzaldehyde, O-[[(4-butoxy-3-methoxyphenyl)amino]carbonyl]oxime]",101 to 500 nM
16,"CCCCOc1ccc(NC(=O)O/N=C/c2ccc(F)cc2)cc1OC [Example 20, 4-Fluorobenzaldehyde, O-[[(4-butoxy-3-methoxyphenyl)amino]carbonyl]oxime]",101 to 500 nM
17,"CCCCOc1ccc(NC(=O)O/N=C/c2cccnc2)cc1OC [Example 21, 3-Pyridinecarboxaldehyde, O-[[(4-butoxy-3-methoxyphenyl)amino]carbonyl]oxime]",> 500 nM
18,"CCCCCCOc1ccc(NC(=O)ON=C(C)C)cc1 [Example 22, 2-Propanone, O-[[(4-hexyloxyphenyl)amino]carbonyl]oxime]",10 to 100 nM
19,"CCCCCCOc1ccc(NC(=O)O/N=C/c2ccccc2)cc1 [Example 23, Benzaldehyde, O-[[(4-hexyloxyphenyl)amino]carbonyl]oxime]",< 10 nM

row,Structure (SMILES),IC50
1,"CCCCCCOc1ccc(NC(=O)O/N=C/c2ccc(F)cc2)cc1 [Example 24, 4-Fluorobenzaldehyde, O-[[(4-hexyloxyphenyl)amino]carbonyl]oxime]",< 10 nM
2,"CCCCCCOc1ccc(NC(=O)O/N=C/c2cccnc2)cc1 [Example 25, 3-Pyridinecarboxaldehyde, O-[[(4-hexyloxyphenyl)amino]carbonyl]oxime]",< 10 nM
3,"CCCCCCCOc1ccc(NC(=O)ON=C(C)C)cc1 [Example 26, 2-Propanone, O-[[(4-heptyloxyphenyl)amino]carbonyl]oxime]",< 10 nM
4,"CCCCCCCOc1ccc(NC(=O)O/N=C/c2ccccc2)cc1 [Example 27, Benzaldehyde, O-[[(4-heptyloxyphenyl)amino]carbonyl]oxime]",< 10 nM
5,"CCCCCCCOc1ccc(NC(=O)O/N=C/c2ccc(F)cc2)cc1 [Example 28, 4-Fluorobenzaldehyde, O-[[(4-heptyloxyphenyl)amino]carbonyl]oxime]",< 10 nM
6,"CCCCCCCCOc1ccc(NC(=O)ON=C(C)C)cc1 [Example 29, 2-Propanone, O-[[(4-octyloxyphenyl)amino]carbonyl]oxime]",< 10 nM
7,"CCCCCCCCOc1ccc(NC(=O)O/N=C/c2cccnc2)cc1 [Example 30, 3-Pyridinecarboxaldehyde, O-[[(4-octyloxyphenyl)amino]carbonyl]oxime]",< 10 nM
8,"CCCCCCCCCOc1ccc(NC(=O)ON=C(C)C)cc1 [Example 31, 2-Propanone, O-[[(4-nonyloxyphenyl)amino]carbonyl]oxime]",< 10 nM
9,"CCCCCCCCCCOc1ccc(NC(=O)ON=C(C)C)cc1 [Example 32, 2-Propanone, O-[[(4-decyloxyphenyl)amino]carbonyl]oxime]",< 10 nM
10,"CCCCCCCCCCOc1ccc(NC(=O)O/N=C/c2ccccc2)cc1 [Example 33, Benzaldehyde, O-[[(4-decyloxyphenyl)amino]carbonyl]oxime]",< 10 nM
11,"CCCCCCCCCCOc1ccc(NC(=O)O/N=C/c2ccc(F)cc2)cc1 [Example 34, 4-Fluorobenzaldehyde, O-[[(4-decyloxyphenyl)amino]carbonyl]oxime]",< 10 nM
12,"CCCCCCCCCCOc1ccc(NC(=O)O/N=C/c2cccnc2)cc1 [Example 35, 3-Pyridinecarboxaldehyde, O-[[(4-decyloxyphenyl)amino]carbonyl]oxime]",< 10 nM
13,"CCCCCCCCCCCOc1ccc(NC(=O)ON=C(C)C)cc1 [Example 36, 2-Propanone, O-[[(4-undecyloxyphenyl)amino]carbonyl]oxime]",< 10 nM
14,"CCCCCCCCCCCOc1ccc(NC(=O)O/N=C/c2ccccc2)cc1 [Example 37, Benzaldehyde, O-[[(4-undecyloxyphenyl)amino]carbonyl]oxime]",< 10 nM
15,"CCCCCCCCCCCOc1ccc(NC(=O)O/N=C/c2ccc(F)cc2)cc1 [Example 38, 4-Fluorobenzaldehyde, O-[[(4-undecyloxyphenyl)amino]carbonyl]oxime]",< 10 nM
16,"CCCCOc1ccc(NC(=O)O/N=C/c2ccccc2)cc1 [Example 39, Benzaldehyde, O-[[(4-butoxyphenyl)amino]carbonyl]oxime]",< 10 nM
17,"CCCCCCCCCCCCOc1ccc(NC(=O)ON=C(C)C)cc1 [Example 40, 2-Propanone, O-[[(4-dodecyloxyphenyl)amino]carbonyl]oxime]",< 10 nM
18,"CCCCCCCCCCCCOc1ccc(NC(=O)O/N=C/c2ccccc2)cc1 [Example 41, Benzaldehyde, O-[[(4-dodecyloxyphenyl)amino]carbonyl]oxime]",< 10 nM

# Reference: US6949574B2 (Bristol-Myers Squibb Company, priority 2002, dated 2005)
